# Experiments:
# Type in all cases: in vivo
# [1] = tested on: Sphaerotheca fuliginea; assay: Control test to powdery mildew of cucumber (foliar and soil treatment); conditions: for Foliar Treatment, Curative Effect / Foliar Treatment, Protective Effect / Powdery mildew, Foliar Treatment, Curative Effect / Powdery mildew, Foliar Treatment, Protective Effect / Powdery mildew, Soil Treatment, Protective Effect / Soil Treatment, Protective Effect: index 0-10; for Protective Index, Foliar Treatment / Protective Index, Soil Treatment: 14 days
# Description: (1) Seeds of cucumber (Cultivar: Matsukaze) were sown in a pot of 9 cm in diameter and the pots were kept in a green house until the plant was grown for 2-3 leaf stage. The first leaf was sprayed with, (i) 3 ml each of solutions containing the test compound at the prescribed concetrations and dried by the air (foliar treatment). Inoculation of spore suspension of Sphaerotheca fuliginea by spraying was practised 2 days before the treatment (curative effect) or 1 day after the treatment (protective effect). Alternatively, (ii) 5 ml of the solution was applied at the root of the seedlings (soil treatment). The pots were kept in a greenhouse for 2 days and inoculation was practised in the same manner noted above. (iii) After sprayed with 3 ml of a solution of the test compound at a concentration of 125 ppm and dried by the air, the treated pots were set in a greenhouse. Untreated pots were placed next to the treated pots. Those treated and untreated plants were inoculated with spore suspension. Protective effect of the test compounds by vapor was thus checked. The effect was examined 14 days after the inoculation of the spores.
# 0: Disease sign is observed on the whole leaf.
# 3: Disease sign is observed on the leaf in about 50%.
# 5: Disease sign is observed on the leaf in about 30%.
# 7: Disease sign is observed on the leaf in about 20%.
# 9: a little disease sign is observed.
# (§1) (1) Test methods and evaluation are the same as those in Tests 2, 4 and 6.
# [2] = tested on: Botrytis cinerea; assay: Control test of Botrytis rot (gray mold) of cucumber
# Description: (1) Seedlings of cucumber (Cultivar: Matsukaze) were planted in a pot of 9 cm in diameter. The first leaf was sprayed with 3 ml each of solutions containing the test compound at the concentration of 125 or 31.3 ppm and the plant was dried by the air. After inoculation of the spores of Botrytis cinerea, the plants were kept at 20°±2° C. and 90-100% humidity ((i) protective spraying). Alternatively, the spores were inoculated at first and when the leaves suffered a little (about 2 days after), the solutions of the test compounds were sprayed ((ii) curative spraying). Evaluation was practised 3 days after the inoculation. Percent disease control was calculated by the ratio of diameter of diseased area in treated and untreated plants.
# as §1
# [3] = tested on: Sphaerotheca fuliginea; assay: Control test to powdery mildew of cucumber by vapor (filter paper disks)
# Description: (1) The first leaves of young cucumber (Cultivar: Matsukaze) planted in pot of 9 cm in diameter were inoculated with spore suspension of Sphaerotheca fuliginea. After the plants were kept in a greenhouse for 2 days, thin cover plates, 15 mm in diameter, were put on the first leaves. Filter paper disks soaked with 80 μl of test solution at a concentration of 31.3, 7.8, 2.0 or 0.5 ppm were put on the plates for 3 days. Disease degrees were observed 14 days after the inoculation.
# It is evaluated as + when an inhibition zone was observed around the plate, as ± when the inhibition zone has nearly the same diameter (8 mm) as that of plate or as - when there is no inhibition zone.
# as §1
# [4] = tested on: Sclerotinia sclerotiorum; assay: Control test to Sclerotinia rot of cucumber
# Description: (1) This test was practised in the same manner as in the above test, control test of Botrytis rot (gray mold) of cucumber, except for using the mycelium of Sclerotinia sclerotiorum as inoculm. The same as in test 2.
smiles,measurement,setting,value
O[C@@]1(c2ccc(F)cc2)CCCC[C@H]1n1ccnc1 (relative stereo) [Compound 29],"Foliar Treatment, Curative Effect","[1]; second Table 4, 0.5 ppm",0
same,"Foliar Treatment, Protective Effect","[1]; second Table 4, 0.5 ppm",0
same,"Foliar Treatment, Curative Effect","[1]; second Table 4, 2.0 ppm",3 (Disease sign is observed on the leaf in about 50%.)
same,"Foliar Treatment, Protective Effect","[1]; second Table 4, 2.0 ppm",3 (Disease sign is observed on the leaf in about 50%.)
same,"Foliar Treatment, Curative Effect","[1]; second Table 4, 7.8 ppm",9
same,"Foliar Treatment, Protective Effect","[1]; second Table 4, 7.8 ppm",9
same,"Foliar Treatment, Curative Effect","[1]; second Table 4, 31.3 ppm",10
same,"Foliar Treatment, Protective Effect","[1]; second Table 4, 31.3 ppm",10
"O[C@]1(c2ccc(Cl)cc2)CCCC[C@H]1n1cncn1 (relative stereo) [Trans-isomer of Compound 22, 1-(4-chlorophenyl)-2-(1,2,4-triazol-1-yl)cyclohexanol, reference compound]","Gray Mold, Percent Disease Control, Curative Spraying","[2]; Table 9, 7.8 ppm",0%
same,"Gray Mold, Percent Disease Control, Protective Spraying","[2]; Table 9, 7.8 ppm",0%
same,"Gray Mold, Percent Disease Control, Curative Spraying","[2]; Table 9, 31.3 ppm",0%
same,"Gray Mold, Percent Disease Control, Protective Spraying","[2]; Table 9, 31.3 ppm",3%
same,"Gray Mold, Percent Disease Control, Curative Spraying","[2]; Table 9, 125 ppm",2%
same,"Gray Mold, Percent Disease Control, Protective Spraying","[2]; Table 9, 125 ppm",3%
same,"Powdery mildew, Vapor Effect","[3]; Table 9, 2.0 ppm",-
same,"Powdery mildew, Vapor Effect","[3]; Table 9, 7.8 ppm",-
same,"Powdery mildew, Vapor Effect","[3]; Table 9, 31.3 ppm",-
same,"Powdery mildew, Foliar Treatment, Curative Effect","[1]; Table 9, 0.03 ppm",0
same,"Powdery mildew, Foliar Treatment, Protective Effect","[1]; Table 9, 0.03 ppm",0
same,"Powdery mildew, Foliar Treatment, Curative Effect","[1]; Table 9, 0.12 ppm",0
same,"Powdery mildew, Foliar Treatment, Protective Effect","[1]; Table 9, 0.12 ppm",0
same,"Powdery mildew, Foliar Treatment, Curative Effect","[1]; Table 9, 0.5 ppm",5 (Disease sign is observed on the leaf in about 30%.)
same,"Powdery mildew, Foliar Treatment, Protective Effect","[1]; Table 9, 0.5 ppm",3 (Disease sign is observed on the leaf in about 50%.)
same,"Powdery mildew, Soil Treatment, Protective Effect","[1]; Table 9, 0.5 ppm",0
same,"Powdery mildew, Foliar Treatment, Curative Effect","[1]; Table 9, 2.0 ppm",9
same,"Powdery mildew, Foliar Treatment, Protective Effect","[1]; Table 9, 2.0 ppm",10
same,"Powdery mildew, Soil Treatment, Protective Effect","[1]; Table 9, 2.0 ppm",0
same,"Powdery mildew, Soil Treatment, Protective Effect","[1]; Table 9, 7.8 ppm",0
same,"Powdery mildew, Soil Treatment, Protective Effect","[1]; Table 9, 31.3 ppm",5 (Disease sign is observed on the leaf in about 30%.)
"Cc1ccc2nc3sc(=O)sc3nc2c1 [Chinomethionat, reference compound]","Protective Index, Foliar Treatment","[1]; first Table 4, 125 ppm",10
"CC(C)NC(=O)N1CC(=O)N(c2cc(Cl)cc(Cl)c2)C1=O [Iprodione, reference compound]","Percent Disease Control, Curative Spraying","[2]; Table 2, 31.3 ppm",64%
same,"Percent Disease Control, Protective Spraying","[2]; Table 2, 31.3 ppm",100%
same,"Percent Disease Control, Curative Spraying","[2]; Table 2, 125 ppm",90%
same,"Percent Disease Control, Protective Spraying","[2]; Table 2, 125 ppm",100%
same,"Percent Disease Control, Curative Spraying",[4]; 31.3 ppm,77%
same,"Percent Disease Control, Protective Spraying",[4]; 31.3 ppm,100%
same,"Percent Disease Control, Curative Spraying",[4]; 125 ppm,90%
same,"Percent Disease Control, Protective Spraying",[4]; 125 ppm,100%
"O[C@@]1(Cc2ccc(Cl)cc2Cl)CCCC[C@H]1n1cncn1 (relative stereo) [Compound 3, cis-1-(2,4-dichlorobenzyl)-2-(1,2,4-triazol-1-yl)cyclohexanol]","Protective Index, Foliar Treatment","[1]; first Table 4, 125 ppm",10
same,"Protective Index, Soil Treatment","[1]; first Table 4, 125 ppm",10
O[C@@]1(c2cc(Cl)ccc2Cl)CCCC[C@H]1n1cncn1 (relative stereo) [Compound 35],"Foliar Treatment, Curative Effect","[1]; second Table 4, 0.5 ppm",10
same,"Foliar Treatment, Protective Effect","[1]; second Table 4, 0.5 ppm",5 (Disease sign is observed on the leaf in about 30%.)
same,"Soil Treatment, Protective Effect","[1]; second Table 4, 0.5 ppm",0
same,"Foliar Treatment, Curative Effect","[1]; second Table 4, 2.0 ppm",10
same,"Foliar Treatment, Protective Effect","[1]; second Table 4, 2.0 ppm",10
same,"Soil Treatment, Protective Effect","[1]; second Table 4, 2.0 ppm",0
same,"Foliar Treatment, Curative Effect","[1]; second Table 4, 7.8 ppm",10
same,"Foliar Treatment, Protective Effect","[1]; second Table 4, 7.8 ppm",10
same,"Soil Treatment, Protective Effect","[1]; second Table 4, 7.8 ppm",9
same,"Foliar Treatment, Curative Effect","[1]; second Table 4, 31.3 ppm",10
same,"Foliar Treatment, Protective Effect","[1]; second Table 4, 31.3 ppm",10
same,"Soil Treatment, Protective Effect","[1]; second Table 4, 31.3 ppm",10
"CCCCc1c(C)nc(N(C)C)nc1O [Dimethirimol, reference compound]","Protective Index, Soil Treatment","[1]; first Table 4, 500 ppm",5 (Disease sign is observed on the leaf in about 30%.)

# Source: patent US5091539A, “Azolyl cycloalkanol derivatives and agricultural fungicides” (Shionogi & Co., Ltd., priority 1984, dated 1992)
